Data as given in patent US8821891B2, “Live attenuated rotavirus vaccine for oral administration” (priority 2005, dated 2014).
Where two headings read alike, the source gives them in different places.

What was measured:
[1] = standard acid-base titration curve, FIG. 1
[2] = cited from earlier work

## O=C(O)CC(O)C(=O)O (centres unmarked) [Malic, malic acid]
physchem
  pKa: 4.22

## O=C(O)/C=C\C(=O)O [Maleic, maleic acid]
physchem
  pKa: 4.07

## O=C([O-])CC(O)C(=O)[O-].[Na+].[Na+] (centres unmarked) [sodium malate]
[1]
  useful antacid capacity between pH 4.0 and pH 7.0: 41.25%

## O=C(O)CCCCC(=O)O [Adipic, adipic acid]
physchem
  pKa: 4.91

## CCC(=O)O [Propinic, propionic acid]
[2]; oral
  Toxicity (LD50 oral, in rat): 2600 mg/kg

## CC(=O)[O-].[Na+] [sodium acetate]
[1]
  useful antacid capacity between pH 4.0 and pH 7.0: 68.75%

## O=C(O)CCCC(=O)O [Glutaric, glutaric acid]
physchem
  pKa: 4.78

## O=C([O-])CC(O)(CC(=O)[O-])C(=O)[O-].[Na+].[Na+].[Na+] [sodium citrate]
[1]
  useful antacid capacity between pH 4.0 and pH 7.0: 57.70%

## O=C(O)CCC(=O)O [Succinic, succinic acid]
[2]; in vivo, po
  Toxicity (LD50 oral, in rat): 2260 mg/kg
physchem
  pKa: 4.9

## O=C([O-])CCCCC(=O)[O-].[Na+].[Na+] [sodium adipate]
[1]
  useful antacid capacity between pH 4.0 and pH 7.0: 72.50%
